Publication PMC3572853 (ACS medicinal chemistry letters, 2012)

Legend:
PADs 1–4 = assay: kinact/KI determination with purified enzyme, all PADs tested; format: biochemical; conditions: for kinact/KI: for all of the PADs tested (PADs 1–4)
maximum tolerable dose = format: in vivo; conditions: mice, per os
MDA-MB-231 cells = assay: cell viability and cell number in MDA-MB-231 cells; format: cell-based; conditions: MDA-MB-231 cells, 100, 200 and 400 µM, 96 h after administration
Ki-67 = Ki-67 levels in MDA-MB-231 cells
caspase 3 activity = caspase 3 activity in MDA-MB-231 cells; conditions: MDA-MB-231 cells, 100, 200 and 400 µM, 96 h
PAD1 = biological target: T1, PAD1 (Homo sapiens, UniProt Q9ULC6); assay: kinact/KI determination with purified enzyme, PAD1; format: biochemical
T1 sequence (Q9ULC6 1-663): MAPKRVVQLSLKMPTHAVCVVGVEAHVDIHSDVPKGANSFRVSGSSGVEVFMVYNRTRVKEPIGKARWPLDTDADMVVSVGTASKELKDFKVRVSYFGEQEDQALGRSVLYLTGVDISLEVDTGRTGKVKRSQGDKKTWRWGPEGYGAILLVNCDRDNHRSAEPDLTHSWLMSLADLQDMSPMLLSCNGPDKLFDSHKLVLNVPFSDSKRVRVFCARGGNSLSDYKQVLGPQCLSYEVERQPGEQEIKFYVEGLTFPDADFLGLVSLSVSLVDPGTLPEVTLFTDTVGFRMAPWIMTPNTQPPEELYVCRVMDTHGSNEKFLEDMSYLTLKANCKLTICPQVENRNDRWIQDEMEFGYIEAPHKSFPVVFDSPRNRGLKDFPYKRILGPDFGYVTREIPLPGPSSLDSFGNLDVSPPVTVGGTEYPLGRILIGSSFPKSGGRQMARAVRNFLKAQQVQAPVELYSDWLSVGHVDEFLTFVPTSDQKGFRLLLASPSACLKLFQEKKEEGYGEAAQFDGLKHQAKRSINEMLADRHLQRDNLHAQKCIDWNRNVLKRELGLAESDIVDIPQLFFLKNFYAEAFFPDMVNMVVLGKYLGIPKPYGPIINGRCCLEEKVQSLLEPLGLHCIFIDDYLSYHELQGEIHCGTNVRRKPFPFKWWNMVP

[1] = pharmacokinetics in mice, IV and IP injection; format: in vivo; conditions: 10 mg/kg
[2] = tested on: collagen induced arthritis (CIA) model; conditions: cited from earlier work
[3] = tested on: mouse model of ulcerative colitis; conditions: cited from earlier work
[4] = mice, 100 mg/kg daily by i.p. for up to 56 days; cited from earlier work

In the case of `N=C(CCl)NCC[C@@H](NC(=O)c1ccccc1)C(N)=O` [D-Cl2-amidine], the kinact/KI (PADs 1–4) is reported as under 2.5 M⁻¹ s⁻¹.
Work on `N=C(CCl)NCCCC[C@@H](NC(=O)c1ccccc1)C(N)=O` [D-Cl4-amidine] yielded a kinact/KI (PADs 1–4) of under 2.5 M⁻¹ s⁻¹.
`N=C(CCl)NCCC[C@@H](NC(=O)c1ccccc1)C(=O)NCC(=O)O` [D-Cl-amidine-Gly] gave a kinact/KI (PADs 1–4) of under 3.83 M⁻¹ s⁻¹.
Work on `N=C(CCl)NCCC[C@@H](NC(=O)c1ccccc1)C(=O)O` [D-Cl-amidine-OH] yielded a kinact/KI (PADs 1–4) of under 3.83 M⁻¹ s⁻¹.
In the case of `N=C(CCl)NCCC[C@@H](NC(=O)c1ccccc1)C(N)=O` [D-Cl-amidine], the body weight change (maximum tolerable dose; varying doses up to 150 mg/kg) is reported as “maintained healthy weight gains”, the cell number (MDA-MB-231 cells) is reported as “significantly decreased cell number at a concentration of 400 µM” and the cell viability (MDA-MB-231 cells) is reported as “significantly decreasing cell viability at concentrations of 200 and 400 µM”. The Ki-67 levels (Ki-67) was “no significant effect on Ki-67 levels” and the “caspase 3 activity” value (caspase 3 activity) was “significant increase in activity at a concentration of 400 µM”.
In the case of `N=C(CF)NCCC[C@@H](NC(=O)c1ccccc1)C(N)=O` [D-F-amidine], the kinact/KI (PAD1) is reported as 20.3 M⁻¹ s⁻¹.
In the case of `N=C(CF)NCCC[C@@H](NC(=O)c1ccccc1C(=O)O)C(N)=O` [D-o-F-amidine], the body weight change (maximum tolerable dose; varying doses up to 150 mg/kg) is reported as “maintained healthy weight gains”, the cell number (MDA-MB-231 cells) is reported as “only a small decrease in cell number at a concentration of 400 µM” and the cell viability (MDA-MB-231 cells) is reported as “no effect on cell viability”. For the same compound, the “caspase 3 activity” value (caspase 3 activity) was “did not result in an increase in caspase 3 activity”.
In the case of `N=C(CCl)NCCC[C@H](NC(=O)c1ccccc1)C(N)=O` [L-Cl-amidine, N-α-Benzoyl-N5-(2-Chloro-1-Iminoethyl)-l-Ornithine Amide], the body weight change (maximum tolerable dose; 100 mg/kg (group 5), 4 days (96 h)) is reported as “significant weight loss”, the body weight change (maximum tolerable dose; 150 mg/kg (group 6), 4 days (96 h)) is reported as “significant weight loss” and the observable toxicity (maximum tolerable dose; group 6 (150 mg/kg)) is reported as “notably shaking, anxious, hunching and breathing heavily from 1 to 4 h after treatment”. For the same compound, the cell number (MDA-MB-231 cells) was “significantly decreased cell number at a concentration of 400 µM”, the cell viability (MDA-MB-231 cells) was “significantly decreasing cell viability at concentrations of 200 and 400 µM” and the “time to complete degradation” value ([1]; IP) was at most 4 h. For the same compound, the “time to complete degradation” value ([1]; IV) was at most 2 h, the disease severity [2] was “reduces disease severity” and the disease severity [3] was “reduces disease severity”. For the same compound, the signs of toxicity [4] was “no observable signs of toxicity”, the Ki-67 levels (Ki-67) was “no significant effect on Ki-67 levels” and the “caspase 3 activity” value (caspase 3 activity) was “significant increase in activity at a concentration of 400 µM”.
With `N=C(CCl)NCCCC(NC(=O)c1ccccc1)C(=O)O` [L-Cl-amidine-OH] the “PAD inhibition in words” value (PADs 1–4; PADs 1–4) was “poor PAD inhibitor”.
For `CC(=O)N[C@H]1[C@@H](O[C@@H]2O[C@H](CC(O)[C@H]3O[C@@H](n4ccc(=O)[nH]c4=O)[C@H](O)[C@@H]3O)[C@H](O)[C@H](O)[C@H]2NC(=O)/C=C/CC(C)C)O[C@H](CO)[C@@H](N)[C@@H]1O` (stereo partly shown) [tunicamycin], the Ki-67 levels (Ki-67) was “a decrease in Ki-67 levels”.
